Test results from article PMC11983343, “Synthesis of Thiazole-methylsulfonyl Derivatives, X-ray Study, and Investigation of Their Carbonic Anhydrase Activities: In Vitro and In Silico Potentials” (ACS Omega, 2025).

Key:
hCA II = biological target: T1, hCA II (Homo sapiens, UniProt P00918); assay: Carbonic anhydrase II inhibition assay (esterase method, p-nitrophenyl acetate, 348 nm); type: biochemical; details: hCA II purified from human erythrocytes
T1 construct: hCA I and hCA II isoenzymes purified from human erythrocytes under in vitro conditions; from tissue; host or cells: human erythrocytes
Source text: (§1) The esterase method was used to investigate the effects of the molecule on hCA isoenzymes.[44] This method is based on the activity of hCA for the hydrolysis of p-nitrophenyl acetate as a substrate for the reaction mechanism of p-nitrophenol or p-nitrophenolate. […] Since p-nitrophenyl acetate has very little absorption at this wavelength, it will be used as a blank. The p-nitrophenyl acetate substrate solution used in the experiments will be prepared daily.[45],[46]
(§2) Then, the cuvette content containing enzymes, unlike the blank cuvette, was prepared according to Table 1 and placed in the spectrophotometer device. […] Then, molecules at different concentrations were added one by one, the absorbances at 0 and 3 min were measured again, and their differences were taken.[45],[46] […] The enzyme activity values obtained were converted to % activity, their graphs were drawn according to the different concentrations of the molecules, and the IC50 value, that is, the concentration of molecules that reduced the enzyme activity by half, was found. The values were interpreted.
(§3) For the inhibition study, five different inhibitor concentrations of molecules were used at a fixed substrate concentration, and the inhibitor concentration (IC50) values that reduced the enzyme’s activity by half were determined by drawing % activity–[I] graphs.

hCA I = biological target: T2, hCA I (Homo sapiens, UniProt P00915); assay: Carbonic anhydrase I inhibition assay (esterase method, p-nitrophenyl acetate, 348 nm); type: biochemical; details: hCA I purified from human erythrocytes
T2 construct: hCA I and hCA II isoenzymes purified from human erythrocytes under in vitro conditions; from tissue; host or cells: human erythrocytes
T2 sequence (P00915 whole entry): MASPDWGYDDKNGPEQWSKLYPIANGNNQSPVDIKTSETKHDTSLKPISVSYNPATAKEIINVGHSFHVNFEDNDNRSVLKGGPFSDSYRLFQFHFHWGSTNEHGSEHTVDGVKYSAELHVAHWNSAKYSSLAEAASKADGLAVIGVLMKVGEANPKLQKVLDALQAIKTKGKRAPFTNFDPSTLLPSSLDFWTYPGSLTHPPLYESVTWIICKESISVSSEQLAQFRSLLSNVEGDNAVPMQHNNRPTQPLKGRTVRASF
Source text: as §1, §2, §3

| IC50 (hCA II) [µM] | IC50 (hCA I) [µM] | Structure (SMILES) |
| --- | --- | --- |
| 70 | 39.4 | CC(=NNc1nc(-c2ccc([N+](=O)[O-])cc2)cs1)c1ccc(S(C)(=O)=O)cc1 [2a, 2-(2-(1-(4-(Methylsulfonyl)phenyl)ethylidene)hydrazinyl)-4-(4-nitrophenyl)thiazole] |
| 76.2 | 59.8 | COc1ccc(-c2csc(NN=C(C)c3ccc(S(C)(=O)=O)cc3)n2)cc1 [2b, 2-(2-(1-(4-(Methylsulfonyl)phenyl)ethylidene)hydrazinyl)-4-(4-methoxyphenyl)thiazole] |
| 39.2 | 63 | CC(=NNc1nc(-c2ccc(C#N)cc2)cs1)c1ccc(S(C)(=O)=O)cc1 [2c, 2-(2-(1-(4-(Methylsulfonyl)phenyl)ethylidene)hydrazinyl)-4-(4-cyanophenyl)thiazole] |
| 54.1 | 103 | CC(=NNc1nc(-c2ccc(F)cc2)cs1)c1ccc(S(C)(=O)=O)cc1 [2d, 2-(2-(1-(4-(Methylsulfonyl)phenyl)ethylidene)hydrazinyl)-4-(4-fluorophenyl)thiazole] |
| 40.5 | 77.9 | CC(=NNc1nc(-c2ccc(-c3ccccc3)cc2)cs1)c1ccc(S(C)(=O)=O)cc1 [2e, 4-([1,1′-Biphenyl]-4-yl)-2-(2-(1-(4-(methylsulfonyl)phenyl)ethylidene)hydrazinyl)thiazole] |
| 51.3 | 133 | CC(=NNc1nc(-c2ccc(Br)cc2)cs1)c1ccc(S(C)(=O)=O)cc1 [2f, 2-(2-(1-(4-(Methylsulfonyl)phenyl)ethylidene)hydrazinyl)-4-(4-bromophenyl)thiazole] |
| 78.8 | 198 | CC(=NNc1nc(-c2ccc(C)cc2)cs1)c1ccc(S(C)(=O)=O)cc1 [2g, 2-(2-(1-(4-(Methylsulfonyl)phenyl)ethylidene)hydrazinyl)-4-(4-methylphenyl)thiazole] |
| 38.5 | 60.8 | CC(=NNc1nc(-c2ccc(Cl)c(Cl)c2)cs1)c1ccc(S(C)(=O)=O)cc1 [2h, 2-(2-(1-(4-(Methylsulfonyl)phenyl)ethylidene)hydrazinyl)-4-(3,4-dichlorophenyl)thiazole] |
| 86.6 | 52.9 | CC(=NNc1nc(-c2ccc(F)cc2F)cs1)c1ccc(S(C)(=O)=O)cc1 [2i, 2-(2-(1-(4-(Methylsulfonyl)phenyl)ethylidene)hydrazinyl)-4-(2,4-difluorophenyl)thiazole] |
| 64.8 | 80.6 | CC(=NNc1nc(-c2cccc([N+](=O)[O-])c2)cs1)c1ccc(S(C)(=O)=O)cc1 [2j, 2-(2-(1-(4-(Methylsulfonyl)phenyl)ethylidene)hydrazinyl)-4-(3-nitrophenyl)thiazole] |
| 86.6 | 58.7 | CC(=NNc1nc(-c2ccc(Cl)cc2)cs1)c1ccc(S(C)(=O)=O)cc1 [2k, 2-(2-(1-(4-(Methylsulfonyl)phenyl)ethylidene)hydrazinyl)-4-(4-chlorophenyl) thiazole] |
| 71.5 | 67.9 | CC(=NNc1nc(-c2ccc(Cl)cc2Cl)cs1)c1ccc(S(C)(=O)=O)cc1 [2l, 2-(2-(1-(4-(Methylsulfonyl)phenyl)ethylidene)hydrazinyl)-4-(2,4-dichlorophenyl)thiazole] |
| 53.3 | 44.4 | CC(=NNc1nc(-c2ccccc2)cs1)c1ccc(S(C)(=O)=O)cc1 [2m, 2-(2-(1-(4-(Methylsulfonyl)phenyl)ethylidene)hydrazinyl)-4-phenylthiazole] |
